This is an account of results in patent US9663495B2 (YUHAN CORPORATION, priority 2013, dated 2017).

The target in assay [1] is T1, GPR119 (Homo sapiens, UniProt Q8TDV5).
T1 construct: host or cells: CHO-K1 (GPR119 CRE-bla, doxycycline-induced)
T1 sequence (Q8TDV5 1-335): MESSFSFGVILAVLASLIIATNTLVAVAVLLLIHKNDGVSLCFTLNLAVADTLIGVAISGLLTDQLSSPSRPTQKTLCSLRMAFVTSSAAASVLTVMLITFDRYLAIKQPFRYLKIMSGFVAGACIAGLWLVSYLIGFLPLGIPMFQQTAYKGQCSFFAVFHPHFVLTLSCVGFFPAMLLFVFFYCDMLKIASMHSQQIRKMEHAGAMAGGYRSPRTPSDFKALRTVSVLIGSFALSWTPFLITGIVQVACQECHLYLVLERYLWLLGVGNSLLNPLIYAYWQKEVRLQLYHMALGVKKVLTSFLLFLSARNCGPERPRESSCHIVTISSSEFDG
Briefly: cAMP Accumulation Assay (GPR119 CRE-bla CHO-K1 cells, LiveBLAzer-FRET B/G). Type of assay: cell-based. As to conditions: for EC50: 5 hours incubation; for Emax (Fold): maximum activity, response ratio versus non-treated control group. The protocol: 32 μl of an assay medium (DMEM supplemented with GlutaMax™ 99%, dialyzed FBS 1%, non-essential amino acid 1 mM, HEPES 25 mM, penicillin 100 U/ml, and streptomycin 100 μg/ml) was added to each well of a 384 black well plate and then the GPR119 CRE-bla CHO-K1 cells (Invitrogen) were seeded in 1×10^4 cells per well. Doxycycline was dissolved in the assay medium in the concentration of 1 μg/ml. The resulting solution (4 μl) was added to each well, which was then incubated in a 5% CO 2 incubator at 37° C. for about 20 to 24 hours. Each test compounds were diluted with the assay medium to prepare 10 samples, which have concentrations ranging from […], respectively. Each samples (8 μl) was added to each well, which was then incubated in a 5% CO2 incubator at 37° C. for 5 hours. In case of the control group, the well was treated with a solution (8 μl) prepared by diluting dimethyl sulfoxide (DMSO) in the assay medium to 1%. The substrate mixture (8 μl) was added to each well, which was then left under darkness at room temperature for 2 hours. The substrate mixture contains the followings: 1 mM LiveBLAzer™-FRET B/G(CCF4-AM) substrate 6 μl, solution B 60 μl, solution C 904 μl, and solution D 30 μl.
Fluorescence intensity was determined under the wavelength conditions of 400 nm/465 nm (excitation/emission) for the blue channel and 400 nm/535 nm (excitation/emission) for the green channel, with the fluorescence microplate reader (SpectraFluor Plus. TECAN). The net activity of each well was calculated by subtracting the average value of the cell-free control group from the value of the unstimulated (i.e., non-treated) control group or the stimulated (i.e., test compound-treated) group at each wavelength. MBX-2982 (Metabolex) was used as a control drug. The response ratio was calculated by dividing the net signal ratio (465 nm/535 nm) of the control drug or the test compound by the net signal ratio (465 nm/535 nm) of the non-treated control group. The relative ratio (R.R) was calculated by dividing the maximum activity [Emax (fold)] of the test compound (i.e., % activity in comparison with the background) by the maximum activity [Emax (fold)] of the control drug (MBX-2982) [Emax (% RR)=(Emax of the test compound/Emax of MBX-2982)×100]. EC50 (half maximal effective concentration) was calculated using the software for statistical analysis “Prism 5.0 (GraphPad)”, based on the values obtained according to concentrations of the test compounds.

Assay [2] addresses T1, GPR119. The assay is described as above. Type of assay: cell-based. As to conditions: (Emax of the test compound/Emax of MBX-2982)x100, 5 hours incubation.

Regarding `CCCn1ncn(-c2ccc(-c3cnc(N4CCN(C(=O)OC(C)(C)C)C[C@@H]4C)nc3)cc2F)c1=O` [Example 2, (S)-tert-butyl 4-(5-(3-fluoro-4-(5-oxo-1-propyl-1H-1,2,4-triazol-4(5H)-yl)phenyl)pyrimidin-2-yl)-3-methylpiperazin-1-carboxylate], at GPR119 [1], the EC50 was determined as 31.9 nM and the “Emax (Fold)” value is reported as 3.3 Fold. At GPR119 [2], the “Emax (% RR)” value is 101.6 % RR.

Regarding `CC(C)n1ncn(-c2ccc(-c3cnc(N4CCN(C(=O)OC(C)(C)C)C[C@@H]4C)nc3)cc2F)c1=O` [Example 3, (S)-tert-butyl 4-(5-(3-fluoro-4-(1-isopropyl-5-oxo-1H-1,2,4-triazol-4(5H)-yl)phenyl)pyrimidin-2-yl)-3-methylpiperazin-1-carboxylate], at GPR119 [1], the EC50 was 62 nM and the “Emax (Fold)” value was 3.4 Fold. In addition, the “Emax (% RR)” value at GPR119 [2] was determined as 113.4 % RR.

For the molecule `COCCn1ncn(-c2ccc(-c3cnc(N4CCN(C(=O)OC(C)(C)C)C[C@@H]4C)nc3)cc2F)c1=O` [Example 4, (S)-tert-butyl 4-(5-(3-fluoro-4-(1-(2-methoxyethyl)-5-oxo-1H-1,2,4-triazol-4(5H)-yl)phenyl)pyrimidin-2-yl)-3-methylpiperazin-1-carboxylate], at GPR119 [1], a half-maximal effect (EC50) was put at 54.9 nM and the “Emax (Fold)” value is recorded as 3.5 Fold. Moreover, the “Emax (% RR)” value at GPR119 [2] came out at 108.0 % RR.

In the case of `CCc1cnc(N2CCN(c3ncc(-c4ccc(-n5cnn(C)c5=O)c(F)c4)cn3)[C@@H](C)C2)nc1` [Example 7, (S)-4-(4-(2-(4-(5-ethylpyrimidin-2-yl)-2-methylpiperazin-1-yl)pyrimidin-5-yl)-2-fluorophenyl)-1-methyl-1H-1,2,4-triazol-5(4H)-one], on GPR119 [1], it took 26 nM to reach a half-maximal effect (EC50) and the “Emax (Fold)” value worked out at 2.5 Fold. Also, the “Emax (% RR)” value at GPR119 [2] stood at 111.5 % RR.

With `C[C@H]1CN(c2ccc(C(F)(F)F)cn2)CCN1c1ncc(-c2ccc(-n3cnn(C)c3=O)c(F)c2)cn1` [Example 8, (S)-4-(2-fluoro-4-(2-(2-methyl-4-(5-(trifluoromethyl)pyridin-2-yl)piperazin-1-yl)pyrimidin-5-yl)phenyl)-1-methyl-1H-1,2,4-triazol-5(4H)-one], at GPR119 [1], the midpoint of the response, the EC50, lay at 5 nM and the “Emax (Fold)” value was 2.5 Fold. Moreover, the “Emax (% RR)” value on GPR119 [2] is recorded as 113.4 % RR.

Regarding `CCc1cnc(N2CCN(c3ncc(-c4ccc(-n5cnn(C)c5=O)c(F)c4)cc3C#N)[C@@H](C)C2)nc1` [Example 9, (S)-2-(4-(5-ethylpyrimidin-2-yl)-2-methylpiperazin-1-yl)-5-(3-fluoro-4-(1-methyl-5-oxo-1H-1,2,4-triazol-4(5H)-yl)phenyl)nicotinonitrile], at GPR119 [1], the EC50 stood at 3 nM and the “Emax (Fold)” value stood at 2.8 Fold. Besides, at GPR119 [2], the “Emax (% RR)” value was 118.2 % RR.

As to `CCc1cnc(N2CCN(c3ncc(-c4ccc(-n5cnn(CC(C)(C)O)c5=O)c(F)c4)cc3C#N)[C@@H](C)C2)nc1` [Example 11, (S)-2-(4-(5-ethylpyrimidin-2-yl)-2-methylpiperazin-1-yl)-5-(3-fluoro-4-(1-(2-hydroxy-2-methylpropyl)-5-oxo-1H-1,2,4-triazol-4(5H)-yl)phenyl)nicotinonitrile], at GPR119 [1], the EC50 worked out at 5 nM and the “Emax (Fold)” value was determined as 2.9 Fold. Also, the “Emax (% RR)” value at GPR119 [2] came to 102.1 % RR.

Take `CCc1cnc(N2CCN(c3ncc(-c4ccc(-n5cnn(CC(C)C)c5=O)c(F)c4)cc3C#N)[C@@H](C)C2)nc1` [Example 12, (S)-2-(4-(5-ethylpyrimidin-2-yl)-2-methylpiperazin-1-yl)-5-(3-fluoro-4-(1-isobutyl-5-oxo-1H-1,2,4-triazol-4(5H)-yl)phenyl)nicotinonitrile]: on GPR119 [1], the EC50 stood at 1 nM and the “Emax (Fold)” value was found to be 2.6 Fold. Moreover, the “Emax (% RR)” value on GPR119 [2] turned out to be 103.8 % RR.

Regarding `CCc1cnc(N2CCN(c3ncc(-c4ccc(-n5cnn(CC(=O)OC)c5=O)c(F)c4)cc3C#N)[C@@H](C)C2)nc1` [Example 13, (S)-methyl 2-(4-(4-(5-cyano-6-(4-(5-ethylpyrimidin-2-yl)-2-methylpiperazin-1-yl)pyridin-3-yl)-2-fluorophenyl)-5-oxo-4,5-dihydro-1H-1,2,4-triazol-1-yl)acetate], at GPR119 [1], the EC50 was determined as 114 nM and the “Emax (Fold)” value is given as 2.9 Fold. For the same molecule, the “Emax (% RR)” value at GPR119 [2] was 102.0 % RR.

As for `CCc1cnc(N2CCN(c3ncc(-c4ccc(-n5cnn(CCNC(=O)OC(C)(C)C)c5=O)c(F)c4)cc3C#N)[C@@H](C)C2)nc1` [Example 16, (S)-tert-butyl 2-(4-(4-(5-cyano-6-(4-(5-ethylpyrimidin-2-yl)-2-methylpiperazin-1-yl)pyridin-3-yl)-2-fluorophenyl)-5-oxo-4,5-dihydro-1H-1,2,4-triazol-1-yl)ethylcarbamate], on GPR119 [1], the EC50 worked out at 7.2 nM and the “Emax (Fold)” value was found to be 3.3 Fold. Also, the “Emax (% RR)” value at GPR119 [2] came out at 116.8 % RR.

In the case of `CCc1cnc(N2CCN(c3ncc(-c4ccc(-n5cnn(CC#N)c5=O)c(F)c4)cc3C#N)[C@@H](C)C2)nc1` [Example 18, (S)-5-(4-(1-(cyanomethyl)-5-oxo-1H-1,2,4-triazol-4(5H)-yl)-3-fluorophenyl)-2-(4-(5-ethylpyrimidin-2-yl)-2-methylpiperazin-1-yl)nicotinonitrile], at GPR119 [1], a half-maximal response (EC50) required 17 nM and the “Emax (Fold)” value is 2.9 Fold. Moreover, the “Emax (% RR)” value on GPR119 [2] is on record as 104.6 % RR.

`CCc1cnc(N2CCN(c3ncc(-c4ccc(-n5cnn(CCN(C(=O)OC(C)(C)C)C(C)C)c5=O)c(F)c4)cc3C#N)[C@@H](C)C2)nc1` [Example 19, (S)-tert-butyl 2-(4-(4-(5-cyano-6-(4-(5-ethylpyrimidin-2-yl)-2-methylpiperazin-1-yl)pyridin-3-yl)-2-fluorophenyl)-5-oxo-4,5-dihydro-1H-1,2,4-triazol-1-yl)ethyl(isopropyl)carbamate]: at GPR119 [1], the EC50 was found to be 5.4 nM and the “Emax (Fold)” value is 3.5 Fold. At GPR119 [2], the “Emax (% RR)” value came to 113.0 % RR.

As for `CCc1cnc(N2CCN(c3ncc(-c4ccc(-n5cnn(CCNC(C)C)c5=O)c(F)c4)cc3C#N)[C@@H](C)C2)nc1.Cl` [Example 20, (S)-2-(4-(5-ethylpyrimidin-2-yl)-2-methylpiperazin-1-yl)-5-(3-fluoro-4-(1-(2-(isopropylamino)ethyl)-5-oxo-1H-1,2,4-triazol-4(5H)-yl)phenyl)nicotinonitrile hydrochloride], at GPR119 [1], the EC50 amounted to 5.6 nM and the “Emax (Fold)” value was determined as 3.1 Fold. On GPR119 [2], the “Emax (% RR)” value is recorded as 109.6 % RR.

With `CCc1cnc(N2CCN(c3ncc(-c4ccc(-n5cn[nH]c5=O)c(F)c4)cc3C#N)[C@@H](C)C2)nc1` [Example 21, (S)-2-(4-(5-ethylpyrimidin-2-yl)-2-methylpiperazin-1-yl)-5-(3-fluoro-4-(5-oxo-1H-1,2,4-triazol-4(5H)-yl)phenyl)nicotinonitrile], at GPR119 [1], the half-maximal effective concentration (EC50) came to 2 nM and the “Emax (Fold)” value was 2.9 Fold. Also, the “Emax (% RR)” value on GPR119 [2] is reported as 102.0 % RR.

For `CCc1cnc(N2CCN(c3ncc(-c4ccc(-n5cnn(COC)c5=O)c(F)c4)cc3C#N)[C@@H](C)C2)nc1` [Example 22, (S)-2-(4-(5-ethylpyrimidin-2-yl)-2-methylpiperazin-1-yl)-5-(3-fluoro-4-(1-(methoxymethyl)-5-oxo-1H-1,2,4-triazol-4(5H)-yl)phenyl)nicotinonitrile], on GPR119 [1], the EC50 stood at 10.2 nM and the “Emax (Fold)” value came to 3.2 Fold. Moreover, the “Emax (% RR)” value at GPR119 [2] is 119.3 % RR.

On to `CCc1cnc(N2CCN(c3ncc(-c4ccc(-n5cnn(CCNS(C)(=O)=O)c5=O)c(F)c4)cc3C#N)[C@@H](C)C2)nc1` [Example 23, (S)—N-(2-(4-(4-(5-cyano-6-(4-(5-ethylpyrimidin-2-yl)-2-methylpiperazin-1-yl)pyridin-3-yl)-2-fluorophenyl)-5-oxo-4,5-dihydro-1H-1,2,4-triazol-1-yl)ethyl)methanesulfonamide], for which, at GPR119 [1], the midpoint of the response, the EC50, lay at 7.9 nM and the “Emax (Fold)” value is listed as 3.4 Fold. For the same molecule, the “Emax (% RR)” value on GPR119 [2] is on record as 111.7 % RR.

The term EC50 denotes the concentration that produces a half-maximal response.
